Data taken from patent US8633319B2, “7-(1H-pyrazol-4-yl)-1,6-naphthyridine compounds as Syk inhibitors” (Glaxo Group Limited, priority 2010, dated 2014).
Several values for one entry are separate records, joined by “and”; a condition that tells them apart may be missing. Equal entries are not always repeated. Where two headings read alike, the source gives them in different places.

What was measured:
SYK lysate = molecular target: T1, SYK lysate (Homo sapiens, UniProt P43405); assay: Basic Syk Enzyme Activity; type: biochemical; settings: read-out: average pIC50 (converted)
T1 construct: Stimulation of Ramos Cells with Anti-IgM Ab to Produce Syk & Preparation of Lysates; endogenous in cells; host or cells: Ramos B cells (human Burkitt's lymphoma, clone 296.4C10, ATCC), stimulated with anti-IgM and lysed in 1% Triton X-100
Protocol: 3 μl of SYK lysate diluted 16-fold in assay buffer (20 mM TRIS pH 7.4, 0.01% BSA, 0.1% Pluronic F-68) was added to wells containing 0.1 μl of various concentrations of compound or DMSO vehicle (1.7% final) in a Greiner low volume 384 well black plate. Following 15 min pre-incubation at room temperature, the reaction was initiated by the addition of 3 μl of substrate reagent containing Y7 Sox peptide, (Invitrogen Cat. # KNZ3071, 5 μM final), ATP (35 μM final) and MgCl2 (10 mM final) in assay buffer. The reaction was incubated at room temperature before measuring fluorescence intensity (λex 360/λem 485) on an Envision plate reader (Perkin Elmer Life Sciences, Waltham, Mass., USA) at 15 min and 55 min post-substrate addition.
Ramos B Cells (human B cells of Burkitt's lymphoma, clone 296.4C10, ATCC) were cultured in suspension in growth medium (RPMI-1640, Sigma; supplemented with 2 mM L-glutamine, Gibco; 10 mM Hepes, Sigma; 1 mM sodium pyruvate, Sigma; 10% v/v heat-inactivated FCS, Gibco). Cells were grown in Corning Cellstacks (6360 cm^2) in 1 liter volume and viability and cell density were monitored daily. Cells were maintained at <1.5×10e6/ml and >92% viability.
Cells were stimulated at 20×10^6 cells/ml using 15 ug/ml (final concentration) anti-IgM antibody. Following harvest (as described above), a total of 4×10^9 cells were resuspended in 180 ml pre-warmed (37° C.) DPBS in a Corning 500 ml centrifuge bottle. 20 ml anti-IgM antibody at 150 ug/ml were added to each 500 ml centrifuge bottle (working stock made up in DPBS pre-warmed to 37° C.). Cells were incubated for exactly 5 min at 37° C. following the addition of anti IgM antibody. Following 5 min stimulation, 300 ml ice-cold DPBS were added to each bottle to stop the stimulation (temperature drops to ˜12° C.) then cells were centrifuged at 2000 rpm (Sorvall Legend RT+ centrifuge—pre-chilled to 4° C.). Cells were washed by resuspension in ice-cold DPBS and centrifugation as above. The cell pellet was then lysed in ice-cold lysis buffer containing 1% triton-x-100 at a ratio of 150 ul/1×10^7 cells (i.e. 48 ml lysis buffer). Following the addition of lysis buffer, the cells were pipetted up & down & kept on ice for 15 min. The clarified lysate was then obtained by centrifugation (Sorvall Evolution RC (SLA-1500 rotor, ˜20,000 g (˜14,500 rpm), 45 min, 4° C.).
Lysate was aliquoted, snap-frozen on dry-ice & stored at −80° C. prior to assay.
Lysis Buffer: 50 mM TRIS pH7.5+150 mM NaCl+1% Triton-X-100+2 mM EGTA+1:100 dilution inhibitor cocktails (phosphatase inhibitor cocktail set II, calbiochem cat no. 524625 & protease inhibitor cocktail set V, calbiochem cat no. 539137)

Whole blood B cells = assay: CD69 Whole Blood Assay; type: cell-based; settings: Homo sapiens, B-cell, anti-IgM stimulated
Protocol: Whole blood B cells are stimulated ex-vivo using anti-IgM. […] The subsequent autophosphorylation of Syk leads to initiation of a signalling cascade resulting in B cell activation as indicated by expression of the activation marker CD69 on the cell surface. CD20/CD69+ve whole blood B cells are detected by flow cytometry.
100 μl heparinised human blood was added to a 5 ml polypropylene tube containing 1 μl appropriately diluted compound solution and incubated for 25 min at 37° C. with 5% CO2. B cells were stimulated with 10 μl Fab′2 fragments of goat anti-human IgM (43 μg/ml final concentration) for a further 3.5 h under the conditions previously described. The red blood cells were lysed and all other cells fixed by the addition of 2 ml Lyse/Fix buffer for 10 min at room temperature.
The cells were stained using a cocktail of mouse anti-human CD20 FITC and mouse anti-human CD69 PE conjugated antibodies. CD20/CD69+ve B cells present in the sample were detected by flow cytometry.
Compound was prepared as a 10 mM stock in DMSO, further diluted down in DMSO to 1 mM and a dilution series prepared in DMSO using 7 successive 3-fold dilutions to give the final concentration range to be tested of 1×10^−5 to 4.57×10^−9M. Compound dilutions were prepared using the Biomek 2000 automated robotic pipetting system.

[1] = test system: Salmonella typhimurium strains and Escherichia coli; assay: Bacterial Mutation Screening Assay (Ames Test); settings: as the free base; presence and absence of S9-mix
Description: The bacterial mutation assay (Ames Test) is a short-term reverse mutation assay specifically designed to detect a wide range of chemical substances that can produce genetic damage that leads to gene mutations (base pair substitutions and frameshift mutations).
The test employs several histidine dependent Salmonella typhimurium strains and several tryptophan dependent strains of Escherichia coli each carrying different mutations in various genes in the histidine or tryptophan operon respectively. These mutations act as hot spots for mutagens that cause DNA damage via different mechanisms.
Briefly, bacteria are cultured for 10 h prior to the test. Top agar is supplemented with trace amounts of histidine, biotin, and tryptophan and aliquoted, before adding the required test article, vehicle or positive control followed by the appropriate bacterial suspension, and either an exogenous mammalian oxidative metabolism system (S9-mix) or buffer solution. The final mixture is poured over minimal agar plates which are then inverted and incubated before scoring for revertant colonies.
Bacterial Strains routinely used are Salmonella typhimurium strains TA98, TA100 TA1535 and TA1537 and Escherichia coli WP2 uvrA (pKM101).
Assays are performed in the presence and absence of an exogenous mammalian oxidative metabolising system (S9-mix), to mimic mammalian metabolism.
The highest concentration tested is one that allows maximum exposure up to 5000 μg/plate for freely soluble compounds, or the limit of solubility or toxicity (whichever is the lower). If compound solubility is a limiting factor, the maximum concentration chosen will be the lowest concentration at which compound precipitate is observed by eye on treatment plates at the end of the incubation period.
A single mutation assay (using the plate incorporation methodology) is conducted in the presence and absence of S9-mix (consisting of 4 replicate plates for vehicle controls and 2 replicate plates for the positive controls and test article).
Plates are usually scored electronically for bacterial colony formation following inspection of the plates for signs of toxicity (i.e. reduced growth (diminution) of background lawn, the presence of pin-dot/pseudorevertant colonies and/or a reduction in colony numbers). Plates will also be evaluated (by eye) for compound precipitation. […]
The number of colonies on each plate is recorded and mean values calculated for each concentration of test article used. Mean values are also be expressed as a ratio of the mean concurrent vehicle control value (i.e. fold increase). […]

[2] = as the free base, read-out: average IC50
[3] = hydrochloric acid salts, read-out: average IC50
[4] = hydrochloric acid salts, read-out: average pIC50 (converted)

Compound	IC50 (SYK lysate; as the free base)	IC50 (SYK lysate; hydrochloric acid salts) [nM]	IC50 (Whole blood B cells; [2]) [nM]	IC50 (Whole blood B cells; [3]) [nM]	IC50 (Whole blood B cells; [4]) [nM]	Ames test result [1]
COCn1cc(-c2cc3ncccc3c(NC[C@]3(F)CCCNC3)n2)cn1 [Example 3, N-{[(3S)-3-Fluoro-3-piperidinyl]methyl}-7-{1-[(methyloxy)methyl]-1H-pyrazol-4-yl}-1,6-naphthyridin-5-amine]	≤ 100 nM and 63.1 nM	≤ 316	< 1000	< 1000	≤ 1000	negative
CCn1cc(-c2cc3ncccc3c(NC[C@]3(F)CCCNC3)n2)cn1 [Example 1, 7-(1-Ethyl-1H-pyrazol-4-yl)-N-{[(3S)-3-fluoro-3-piperidinyl]methyl}-1,6-naphthyridin-5-amine]	≤ 100 nM and 25.1 nM	≤ 316	< 1000	< 1000	≤ 1000	negative
CCn1cc(-c2cc3ncccc3c(OC[C@]3(F)CCCNC3)n2)cn1 [Example 4, 7-(1-Ethyl-1H-pyrazol-4-yl)-5-({[(3S)-3-fluoro-3-piperidinyl]methyl}oxy)-1,6-naphthyridine]	≤ 100 nM and 7.94 nM	≤ 316	< 1000	< 1000	≤ 1000	negative
CC(C)(C)n1cc(-c2cc3ncccc3c(NC[C@]3(F)CCCNC3)n2)cn1 [Example 2, 7-[1-(1,1-Dimethylethyl)-1H-pyrazol-4-yl]-N-{[(3S)-3-fluoro-3-piperidinyl]methyl}-1,6-naphthyridin-5-amine]	≤ 100 nM and 20 nM	≤ 316	< 1000	< 1000	≤ 1000	negative
